From patent US20250339409A1, “USES OF PAN BET INHIBITORS” (VYNE THERAPEUTICS INC., priority 2021, published 2025)

System: imiquimod-induced psoriasis
Assay: Imiquimod-induced psoriasis (Th17 inflammation) model in mice, topical treatment once daily D7-D13: PASI, modified PASI, body weight, use of enrichment, TEWL
Format: in vivo
Set-up: key to Mean score use enrichment: 0 = no use of dental rolls to 4 = use of all 4; key to PASI Mean score values: sum of erythema, induration, peeling scores, each 0-3 (0 = none)
Method: Thirty-six (36) female Balb/c mice are weighed and randomly divided into 9 groups (n=4) according to body weight on D1. For mice of native group 1 and tolerance groups 8 and 9, no induction of psoriasis is performed between D1 and D13. Psoriasis is induced in groups 2 to 7 by once daily topical application for 13 days (from day 1 to day 13) of 65 mg of Aldara™ cream (5.0% imiquimod) onto the shaved and epilated back of mice. Before the first treatment, a second randomization of mice of the 6 imiquimod-induced psoriasis groups is performed according to the severity of psoriasis (PASI), and also the body weight of mice. Starting on day 7 and until day 13, 100 mg of test formulations […] and 65 mg of vehicle (groups 1 and […]) are topically administered once daily for 7 consecutive days onto the shaved back skin of mice. Several measurements are taken during treatment period from day 7 to day 14: psoriasis index (PASI), body weight, use of enrichment and mortality. At the end of treatment period, TEWL is assessed, and blood and skin samples are collected. Histological analysis of skin samples is used for microscopic scoring of psoriasis and the determination of the thickness of parakeratosis and epidermis and blood analysis is used for assessing the level of proinflammatory biomarkers (cytokines assays). The effect of treatment of psoriasis induced mice with BETi formulations at the four dose levels are compared with Dermoval® cream containing 0.05% clobetasol propionate (reference) and vehicle (positive control) and also with healthy mice treated with vehicle (negative control).
PASI scoring takes into account the following 3 parameters: the presence of erythema on the skin, induration of the skin (thickening) and peeling of the skin at the area of the induction of psoriasis.
The presence of erythema on the skin at the area of induction of psoriasis with the following scoring grid: • 0=no or no more erythema on the skin, • 1=weak erythema on the skin, • 2=moderate erythema on the skin, • 3=important erythema on the skin.
The presence of induration of the skin at the area of induction of psoriasis with the following scoring grid: • 0=no or no more induration of the skin, • 1=weak induration of the skin, • 2=moderate induration of the skin, • 3=important induration of the skin.
The presence of peeling of the skin at the area of induction of psoriasis with the following scoring grid: • 0=no or no more dryness/peeling of the skin, • 1=weak dryness/peeling of the skin, • 2=moderate dryness/peeling of the skin, • 3=important dryness/peeling of the skin.
The sum of the mean scores of these 3 parameters result in the mean PASI score.
One of the issues with a steroid is that it causes skin thinning and continues to have an effect on no longer inflamed skin and the model set up and measurements above are not designed to reflect this negative effect. Therefore, a modified PASI (mPASI) is calculated in the same the manner as mean PASI score but excludes the scoring for induration (thickening of the skin).
Mice are weighed three times during the week of D1 to D7, and then daily during the week of D7 to D13, as well as on the day D14 when they are sacrificed. It should be noted that a characteristic body weight loss of mice is observed after the start of the induction of psoriasis, mainly during the first days following it. The body weight loss can reach between 10 to 15%.
For the duration of the experiment, dental rolls are used as enrichment and placed in each cage and replaced twice. Between D1 and D7, the number of dental rolls used by animals are determined twice in the morning, and are determined daily during D7 to D14, at the time of PASI or the tolerance assessment. The use of dental rolls is scored from 0=no use of dental rolls to 4=use of the 4 dental rolls. In the case where only half of a dental roll is used, a score of 0.5 is assigned. […]

SMILES: Cn1cc(-c2cccc(O)c2Oc2ccccc2)c2cc[nH]c2c1=O [BETi1]
- Change in Modified PASI Mean score values (Table 1C, imiquimod-induced mice, treatment day 0, listed as BETi1 0.001%): 4.25
- Change in Modified PASI Mean score values (Table 1C, imiquimod-induced mice, treatment day 0, listed as BETi1 0.01%): 4.375
- Change in Modified PASI Mean score values (Table 1C, imiquimod-induced mice, treatment day 0, listed as BETi1 0.1%): 4.375
- Change in Modified PASI Mean score values (Table 1C, imiquimod-induced mice, treatment day 1, listed as BETi1 0.001%): 5.375
- Change in Modified PASI Mean score values (Table 1C, imiquimod-induced mice, treatment day 1, listed as BETi1 0.01%): 4
- Change in Modified PASI Mean score values (Table 1C, imiquimod-induced mice, treatment day 1, listed as BETi1 0.1%): 4.375
- Change in Modified PASI Mean score values (Table 1C, imiquimod-induced mice, treatment day 2, listed as BETi1 0.001%): 4.75
- Change in Modified PASI Mean score values (Table 1C, imiquimod-induced mice, treatment day 2, listed as BETi1 0.01%): 2.875
- Change in Modified PASI Mean score values (Table 1C, imiquimod-induced mice, treatment day 2, listed as BETi1 0.1%): 3.125
- Change in Modified PASI Mean score values (Table 1C, imiquimod-induced mice, treatment day 3, listed as BETi1 0.001%): 4.25
- Change in Modified PASI Mean score values (Table 1C, imiquimod-induced mice, treatment day 3, listed as BETi1 0.01%): 2.5
- Change in Modified PASI Mean score values (Table 1C, imiquimod-induced mice, treatment day 3, listed as BETi1 0.1%): 2
- Change in Modified PASI Mean score values (Table 1C, imiquimod-induced mice, treatment day 4, listed as BETi1 0.001%): 4
- Change in Modified PASI Mean score values (Table 1C, imiquimod-induced mice, treatment day 4, listed as BETi1 0.01%): 2.125
- Change in Modified PASI Mean score values (Table 1C, imiquimod-induced mice, treatment day 4, listed as BETi1 0.1%): 0.75
- Change in Modified PASI Mean score values (Table 1C, imiquimod-induced mice, treatment day 5, listed as BETi1 0.001%): 3.375
- Change in Modified PASI Mean score values (Table 1C, imiquimod-induced mice, treatment day 5, listed as BETi1 0.01%): 1
- Change in Modified PASI Mean score values (Table 1C, imiquimod-induced mice, treatment day 5, listed as BETi1 0.1%): 0.375
- Change in Modified PASI Mean score values (Table 1C, imiquimod-induced mice, treatment day 6, listed as BETi1 0.001%): 3
- Change in Modified PASI Mean score values (Table 1C, imiquimod-induced mice, treatment day 6, listed as BETi1 0.01%): 1.25
- Change in Modified PASI Mean score values (Table 1C, imiquimod-induced mice, treatment day 6, listed as BETi1 0.1%): 0.25
- Change in Modified PASI Mean score values (Table 1C, imiquimod-induced mice, treatment day 7, listed as BETi1 0.001%): 3
- Change in Modified PASI Mean score values (Table 1C, imiquimod-induced mice, treatment day 7, listed as BETi1 0.01%): 1
- Change in Modified PASI Mean score values (Table 1C, imiquimod-induced mice, treatment day 7, listed as BETi1 0.1%): 0.25
- Change in Modified PASI Mean score values (Table 1D, relative to day 0 = 100, treatment day 0): 100
- Change in Modified PASI Mean score values (Table 1D, relative to day 0 = 100, treatment day 1, listed as BETi1 0.001%): 126.47
- Change in Modified PASI Mean score values (Table 1D, relative to day 0 = 100, treatment day 1, listed as BETi1 0.01%): 91.43
- Change in Modified PASI Mean score values (Table 1D, relative to day 0 = 100, treatment day 1, listed as BETi1 0.1%): 100
- Change in Modified PASI Mean score values (Table 1D, relative to day 0 = 100, treatment day 2, listed as BETi1 0.001%): 111.76
- Change in Modified PASI Mean score values (Table 1D, relative to day 0 = 100, treatment day 2, listed as BETi1 0.01%): 65.71
- Change in Modified PASI Mean score values (Table 1D, relative to day 0 = 100, treatment day 2, listed as BETi1 0.1%): 71.43
- Change in Modified PASI Mean score values (Table 1D, relative to day 0 = 100, treatment day 3, listed as BETi1 0.001%): 100
- Change in Modified PASI Mean score values (Table 1D, relative to day 0 = 100, treatment day 3, listed as BETi1 0.01%): 57.14
- Change in Modified PASI Mean score values (Table 1D, relative to day 0 = 100, treatment day 3, listed as BETi1 0.1%): 45.72
- Change in Modified PASI Mean score values (Table 1D, relative to day 0 = 100, treatment day 4, listed as BETi1 0.001%): 94.12
- Change in Modified PASI Mean score values (Table 1D, relative to day 0 = 100, treatment day 4, listed as BETi1 0.01%): 48.57
- Change in Modified PASI Mean score values (Table 1D, relative to day 0 = 100, treatment day 4, listed as BETi1 0.1%): 17.142
- Change in Modified PASI Mean score values (Table 1D, relative to day 0 = 100, treatment day 5, listed as BETi1 0.001%): 79.41
- Change in Modified PASI Mean score values (Table 1D, relative to day 0 = 100, treatment day 5, listed as BETi1 0.01%): 22.86
- Change in Modified PASI Mean score values (Table 1D, relative to day 0 = 100, treatment day 5, listed as BETi1 0.1%): 8.57
- Change in Modified PASI Mean score values (Table 1D, relative to day 0 = 100, treatment day 6, listed as BETi1 0.001%): 70.59
- Change in Modified PASI Mean score values (Table 1D, relative to day 0 = 100, treatment day 6, listed as BETi1 0.01%): 28.57
- Change in Modified PASI Mean score values (Table 1D, relative to day 0 = 100, treatment day 6, listed as BETi1 0.1%): 5.71
- Change in Modified PASI Mean score values (Table 1D, relative to day 0 = 100, treatment day 7, listed as BETi1 0.001%): 70.59
- Change in Modified PASI Mean score values (Table 1D, relative to day 0 = 100, treatment day 7, listed as BETi1 0.01%): 22.86
- Change in Modified PASI Mean score values (Table 1D, relative to day 0 = 100, treatment day 7, listed as BETi1 0.1%): 5.71
- Mean score use enrichment (imiquimod-induced mice, Before D 1, listed as BETi 0.001%): 4.00
- Mean score use enrichment (imiquimod-induced mice, Before D 1, listed as BETi 0.01%): 4.00
- Mean score use enrichment (imiquimod-induced mice, Before D 1, listed as BETi 0.1%): 4.00
- Mean score use enrichment (imiquimod-induced mice, Before D 1, listed as BETi 1.0%): 3.75
- Modified PASI Mean score values (imiquimod-induced mice, D 1): 0.00
- PASI Mean score values (imiquimod-induced mice, D 1): 0.00
- Mean score use enrichment (imiquimod-induced mice, D 1-D 8, listed as BETi 0.001%): 1.79
- Mean score use enrichment (imiquimod-induced mice, D 1-D 8, listed as BETi 0.01%): 1.61
- Mean score use enrichment (imiquimod-induced mice, D 1-D 8, listed as BETi 0.1%): 1.54
- Mean score use enrichment (imiquimod-induced mice, D 1-D 8, listed as BETi 1.0%): 2.56
- Mean body weights (imiquimod-induced mice, D 1, listed as BETi1 1.0%): 18.11
